The values that follow come from patent US9650339B2, “Inhibitors of histone demethylases” (Gilead Sciences, Inc., priority 2013, dated 2017).

pIC50: −log10 of the molar value.

Assay [1] addresses T1, KDM4C (JMJD2C) (Homo sapiens, UniProt Q9H3R0).
T1 sequence (Q9H3R0 1-349): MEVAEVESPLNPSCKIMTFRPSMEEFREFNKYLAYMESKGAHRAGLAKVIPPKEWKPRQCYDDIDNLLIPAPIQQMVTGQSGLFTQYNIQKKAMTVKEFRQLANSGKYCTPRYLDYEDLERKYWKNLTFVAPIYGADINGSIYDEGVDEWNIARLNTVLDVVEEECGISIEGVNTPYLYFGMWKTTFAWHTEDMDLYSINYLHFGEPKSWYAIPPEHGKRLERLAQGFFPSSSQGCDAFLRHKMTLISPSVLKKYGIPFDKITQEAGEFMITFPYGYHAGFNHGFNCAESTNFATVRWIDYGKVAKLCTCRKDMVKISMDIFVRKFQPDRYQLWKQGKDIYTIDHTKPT
Description: Histone lysine demethylase AlphaLISA assay, KDM4C. In kind it is biochemical. Conditions: read-out: KDM4C HDME Inhibition IC50. A digest of the protocol: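 AlphaLISA demethylation readout: enzyme preincubated 10 min, then 10 min with compounds in 3% DMSO buffer, before biotinylated methyl-lysine histone peptide substrate with 25 μM L-Asc and 10 μM α-KG, room temperature. Acceptor beads then streptavidin donor beads added, dark incubation, plates read.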
(In general: Alpha assays give light when donor and acceptor beads are brought close together.)

For assay [2], the target named is T2, KDM5B (Homo sapiens, UniProt Q9UGL1).
T2 construct: (a.a. 1-752); host or cells: U2OS
T2 sequence (Q9UGL1 1-752): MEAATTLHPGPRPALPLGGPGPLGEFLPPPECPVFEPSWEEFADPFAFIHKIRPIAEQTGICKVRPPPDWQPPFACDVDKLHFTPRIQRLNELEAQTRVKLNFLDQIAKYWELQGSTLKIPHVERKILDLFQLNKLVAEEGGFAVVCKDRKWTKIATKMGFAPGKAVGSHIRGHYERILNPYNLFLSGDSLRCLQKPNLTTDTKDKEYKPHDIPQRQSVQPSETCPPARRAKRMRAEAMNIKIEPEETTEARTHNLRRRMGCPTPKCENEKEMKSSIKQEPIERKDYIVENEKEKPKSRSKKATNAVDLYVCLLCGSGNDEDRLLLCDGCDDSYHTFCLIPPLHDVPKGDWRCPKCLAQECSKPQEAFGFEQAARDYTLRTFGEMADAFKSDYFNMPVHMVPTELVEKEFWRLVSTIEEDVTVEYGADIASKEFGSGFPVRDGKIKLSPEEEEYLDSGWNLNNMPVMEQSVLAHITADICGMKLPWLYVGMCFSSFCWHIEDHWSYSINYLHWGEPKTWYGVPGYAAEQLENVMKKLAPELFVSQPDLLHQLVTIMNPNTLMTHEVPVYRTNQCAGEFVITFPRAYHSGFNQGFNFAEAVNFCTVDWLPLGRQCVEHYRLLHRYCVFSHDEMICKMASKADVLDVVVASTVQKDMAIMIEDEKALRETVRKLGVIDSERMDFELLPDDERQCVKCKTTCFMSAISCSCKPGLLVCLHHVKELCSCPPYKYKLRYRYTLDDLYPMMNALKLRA
Description: Histone lysine demethylase immunofluorescence assay, U2OS cells transfected with KDM5B. In kind it is cell-based. Conditions: U2OS cells transfected with pCMVHA KDM5B; mark detected H3K4me2; 20 hours. As to the method: U2OS cells were seeded 24 hours before transfection. Transfection was performed with Fugene HD transfection reagent as recommended by the manufacturer. 6 hours after transfection, the cells were harvested and seeded into multi well plates into media containing compound. The media used was DMEM containing 10% FBS and pen/strep. 20 hours after incubation of cells with compounds, the cells were washed in PBS, harvested by fixation with formaldehyde 4% aqueous solution, and washed in PBS. Subsequently, the cells were permeabilized in PBS with 0.2% Triton X-100 for. Blocking was performed in PBS with 0.2% Triton X-100 and 5% FBS. The cells were incubated with primary antibodies in blocking solution over night at 4° C. The primary antibodies used in the assays were HA.11 (Covance, MMS-101P) and the antibody detecting the mark specified in the table below. After incubation with primary antibodies, the cells were washed with PBS, incubated with secondary antibodies (Alexa fluor 594 goat anti rabbit IgG, Invitrogen, A11012; Alexa flour 488 donkey anti mouse IgG, Invitrogen, A21202) and Hoechst, (Sigma, 33342) in blocking solution, and washed again with PBS. Finally, PBS was added and high throughput imaging and analysis were performed by an IN Cell Analyzer 1000 (GE Healthcare). The robot software analyzed individual cells and divided these into HA+ (transfected cells) and HA− (non-transfected cells). The IC50 values were based on an average measure of the staining of the mark specified in the table below in the transfected cells.

`CCN(CC)CCCCNCc1cc(CNC(=O)C(F)(F)F)ccn1` [Compound 1, N-{[2-({[4-(diethylamino)butyl]-amino}methyl)pyridin-4-yl]methyl}-2,2,2-trifluoroacetamide]: the pIC50 – broadly, the negative decadic logarithm of the IC50, by convention in mol/L – was under 5.60 in assay [1] and over 6.60 in assay [2].

`CN(C)CCCNCc1cc(CN)ccn1` [Compound 3, [2-({[3-(dimethylamino)propyl]-amino}methyl)pyridin-4-yl]methanamine]: the values for the pIC50 in assay [1] and in assay [2] were under 5.60 and over 6.60, respectively.

As to `CCN(CCN(C)C)C(=O)CNCc1cc(CN)ccn1` [Compound 4, 2-({[4-(aminomethyl)pyridin-2-yl]methyl}amino)-N-[2-(dimethylamino)ethyl]-N-ethylacetamide], the pIC50 was 5.60 to 6.60 in assay [1] and over 6.60 in assay [2].

For `CCN(CC)CCCCNCc1cc(CN)ccn1` [Compound 5, [2-({[4-(diethylamino)butyl]-amino}methyl)pyridin-4-yl]methanamine], the pIC50 in assay [1] was under 5.60; in assay [2], over 6.60.

`CCN(CC)CCCCN(Cc1cc(CNC(=O)C(F)(F)F)ccn1)C(=O)C(F)(F)F` [Compound 6, N-[4-(diethylamino)butyl]-- 2,2,2-trifluoro-N-({4-[(trifluoroacetamido)-methyl]pyridin-2-yl}methyl)acetamide]: the pIC50 in assay [1] is under 5.60; in assay [2], over 6.60.

Take `NCc1ccnc(CNCCCCN2CCC2)c1` [Compound 7, [2-({[4-(azetidin-1-yl)butyl]amino}methyl)-pyridin-4-yl]-methanamine]: the pIC50 in assay [1] is under 5.60; in assay [2], over 6.60.

For `CN(C)CCCCCNCc1cc(CN)ccn1` [Compound 8, [2-({[5-(dimethylamino)pentyl]-amino}methyl)pyridin-4-yl]methanamine], the pIC50 in assay [1] is under 5.60; in assay [2], over 6.60.

Take `COc1ccccc1CN1CCC(NC(=O)CNCc2cc(CN)ccn2)CC1` [Compound 9, 2-({[4-(aminomethyl)pyridin-2-yl]methyl}amino)-N-{1-[(2-methoxyphenyl)methyl]-piperidin-4-yl}acetamide]: the pIC50 was under 5.60 in assay [1] and 5.60 to 6.60 in assay [2].

For the compound `CN(C)CCCCNCc1cc(CNC2CC2)ccn1` [Compound 10, N-{[2-({[4-(dimethylamino)butyl]-amino}methyl)pyridin-4-yl]methyl}-cyclopropanamine], the pIC50 in assay [1] and in assay [2] was under 5.60 throughout.

Take `CC1CCCCN1CCCNCc1cc(CNC2CC2)ccn1` (centres unmarked) [Compound 11, N-{[2-({[3-(2-methylpiperidin-1-yl)propyl]amino}methyl)-pyridin-4-yl]methyl}-cyclopropanamine]: the pIC50 in assay [1] and in assay [2] was under 5.60 in each case.

For `CCCNCc1cc(CNC2CC2)ccn1` [Compound 12, N-({2-[(propylamino)methyl]-pyridin-4-yl}methyl)-cyclopropanamine], the pIC50 in assay [1] and in assay [2] was under 5.60 throughout.

As to `CN(C)C(=O)CNCc1cc(CNCC#N)ccn1` [Compound 13, 2-{[(4-{[(cyanomethyl)amino]-methyl}pyridin-2-yl)methyl]amino}-N,N-dimethylacetamide], the pIC50 was under 5.60 in assay [1] and 5.60 to 6.60 in assay [2].

Turning to `CN(C)C(=O)CNCc1cc(CNCCF)ccn1` [Compound 14, 2-{[(4-{[(2-fluoroethyl)amino]-methyl}pyridin-2-yl)methyl]amino}-N,N-dimethylacetamide], the pIC50 in assay [1] was 5.60 to 6.60; in assay [2], under 5.60.

As for `CN(C)CCNCc1ccnc(CNCC(=O)N(C)C)c1` [Compound 15, 2-({[4-({[2-(dimethylamino)ethyl]-amino}methyl)pyridin-2-yl]methyl}amino)-N,N-dimethylacetamide], the pIC50 in assay [1] and in assay [2] was 5.60 to 6.60 throughout.

For `c1ccc(CN2CCC[C@H]2CNCc2cc(CNCC3CC3)ccn2)cc1` [Compound 16, {[(2S)-1-benzylpyrrolidin-2-yl]methyl}[(4-{[(cyclopropylmethyl)-amino]methyl}pyridin-2-yl)methyl]amine], the pIC50 in assay [1] and in assay [2] was under 5.60 each time.

On to `CNCc1ccnc(CNCCCN(C)Cc2ccccc2)c1` [Compound 17, benzyl(methyl){3-[({4-[(methylamino)methyl]-pyridin-2-yl)methyl)-amino]propyl}-amine], for which the pIC50 in assay [1] was 5.60 to 6.60; in assay [2], under 5.60.

With `CN(C)CCNCc1cc(CNC(C#N)C2CC2)ccn1` (centres unmarked) [Compound 21, 2-cyclopropyl-2-({[2-({[2-(dimethylamino)ethyl]-amino}methyl)pyridin-4-yl]methyl}amino)-acetonitrile], the pIC50 in assay [1] is under 5.60; in assay [2], 5.60 to 6.60.

For the compound `CC(C#N)NCc1ccnc(CNCCCN(C)C)c1` (centres unmarked) [Compound 22, 2-({[2-({[3-(dimethylamino)propyl]-amino}methyl)pyridin-4-yl]methyl}amino)-propanenitrile], the pIC50 is under 5.60 in assay [1] and over 6.60 in assay [2].

For `N#CCNCc1ccnc(CNCCCCN(Cc2ccccc2)C2CC2)c1` [Compound 23, 2-[({2-[({4-[benzyl(cyclopropyl)-amino]butyl}amino)-methyl]pyridin-4-yl}methyl)amino]-acetonitrile], the pIC50 is under 5.60 in assay [1] and 5.60 to 6.60 in assay [2].

`CNC(C#N)c1ccnc(CNCCCN(C)C)c1` (centres unmarked) [Compound 24, 2-[2-({[3-(dimethylamino)propyl]-amino}methyl)pyridin-4-yl]-2-(methylamino)-acetonitrile]: the results for the pIC50 in assay [1] and in assay [2] were 5.60 to 6.60 and over 6.60, respectively.

As to `CCN(CCN(C)C)C(=O)CNCc1cc(CNC(=O)C(F)(F)F)ccn1` [Compound 25, N-[(2-{[({[2-(dimethylamino)ethyl]-(ethyl)carbamoyl}-methyl)amino]methyl}-pyrtdin-4-yl)methyl]-2,2,2-trifluoroacetamide], the pIC50 is under 5.60 in assay [1] and over 6.60 in assay [2].

Regarding `CN(C)C(=O)CNCc1cc(/C=N\C2CC2)ccn1` [Compound 33], the pIC50 is over 6.60 in assay [1] and 5.60 to 6.60 in assay [2].

With `CN(C)C(=O)CNCc1cc(/C=N/CCCc2ccccc2)ccn1` [Compound 34, N,N-dimethyl-2-[({4-[[(3-phenylpropyl)imino]-methyl]pyridin-2-yl}methyl)amino]-acetamide], the pIC50 in assay [1] and in assay [2] was 5.60 to 6.60 throughout.

On to `C(=N\C1CC1)/c1ccnc(CNCCCCN2CCC2)c1` [Compound 44, N-{[2-({[4-(azetidin-1-yl)butyl]amino}methyl)-pyridin-4-yl]methylidene}-cyclopropanamine], for which, in assay [1], the pIC50 is over 6.60.

For the compound `CCN(CC)C(=O)CNCc1cc(/C=N/CCC2CCCCC2)ccn1` [Compound 57, 2-[({4-[[(2-cyclohexylethyl)imino]-methyl]pyridin-2-yl}methyl)amino]-N,N-diethylacetamide], the pIC50 in assay [1] is 5.60 to 6.60.

On to `CCCCCCCC/N=C/c1ccnc(CNCC(=O)N(CC)CC)c1` [Compound 58, N,N-diethyl-2-[({4-[(octylimino)methyl]-pyridin-2-yl}methyl)amino]-acetamide], for which the pIC50 in assay [1] was 5.60 to 6.60.

With `CCN(CC)CCCCNCc1cc(/C=N/CCOC)ccn1` [Compound 60, [4-(diethylamino)butyl]-({4-[[(2-methoxyethyl)imino]-methyl]pyridin-2-yl}methyl)amine], in assay [1], the pIC50 was under 5.60.
